Measurements: ChEMBL document CHEMBL4130496, “Anticancer properties of 4-thiazolidinone derivatives depend on peroxisome proliferator-activated receptor gamma (PPARγ)” (2017)
Calls of active or inactive are those of the source. The calls are words filed in the database; no cut-off is given here.

Tests used:
SCC-15 [1] = experiment: Downregulation of PPARalpha mRNA expression in human SCC15 cells at 10 uM after 4 hrs by RTqPCR analysis relative to control; format: functional
SCC-15 [2] = experiment: Induction of apoptosis in human SCC15 cells transfected with PPARgamma siRNA assessed as increase in caspase 3 activity at 50 uM after 24 hrs relative to control; format: functional
SCC-15 [3] = experiment: Downregulation of PPARgamma mRNA expression in human SCC15 cells at 10 uM after 4 hrs by RTqPCR analysis relative to control; format: functional
SCC-15 [4] = experiment: Downregulation of PPARbeta mRNA expression in human SCC15 cells at 10 uM after 4 hrs by RTqPCR analysis relative to control; format: functional
SCC-15 [5] = experiment: Cytotoxicity against human SCC15 cells transfected with PPARgamma siRNA assessed as reduction in cell viability at 50 uM after 24 hrs by resazurin reduction assay; format: functional
SCC-15 [6] = experiment: Downregulation of PPARalpha mRNA expression in human SCC15 cells at 50 uM after 4 hrs by RTqPCR analysis relative to control; format: functional
SCC-15 [7] = experiment: Induction of apoptosis in human SCC15 cells transfected with PPARalpha siRNA assessed as increase in caspase 3 activity at 50 uM after 24 hrs relative to control; format: functional, cell-based
SCC-15 [8] = experiment: Cytotoxicity against human SCC15 cells assessed as reduction in cell viability at 50 uM after 24 hrs by resazurin reduction assay relative to control; format: functional
SCC-15 [9] = experiment: Induction of apoptosis in human SCC15 cells assessed as increase in caspase 3 activity at 50 uM after 24 hrs relative to control; format: functional
SCC-15 [10] = experiment: Downregulation of PPARgamma mRNA expression in human SCC15 cells at 50 uM after 4 hrs by RTqPCR analysis relative to control; format: functional
SCC-15 [11] = experiment: Cytotoxicity against human SCC15 cells transfected with PPARalpha siRNA assessed as increase in LDH release at 50 uM after 24 hrs by colorimetric assay; format: functional, cell-based
SCC-15 [12] = experiment: Cytotoxicity against human SCC15 cells assessed as increase in LDH release at 50 uM after 24 hrs by colorimetric assay relative to […]; format: functional
SCC-15 [13] = experiment: Cytotoxicity against human SCC15 cells transfected with PPARgamma siRNA assessed as increase in LDH release at 50 uM after 24 hrs by colorimetric assay relative to control; format: functional, cell-based
SCC-15 [14] = experiment: Downregulation of PPARbeta mRNA expression in human SCC15 cells at 50 uM after 4 hrs by RTqPCR analysis relative to control; format: functional
SCC-15 [15] = experiment: Cytotoxicity against human SCC15 cells transfected with PPARbeta siRNA assessed as increase in LDH release at 50 uM after 24 hrs by colorimetric assay relative to control; format: functional, cell-based
SCC-15 [16] = experiment: Cytotoxicity against human SCC15 cells transfected with PPARalpha siRNA assessed as reduction in cell viability at 50 uM after 24 hrs by resazurin reduction assay; format: functional, cell-based
SCC-15 [17] = experiment: Cytotoxicity against human SCC15 cells transfected with PPARbeta siRNA assessed as reduction in cell viability at 50 uM after 24 hrs by resazurin reduction assay; format: functional, cell-based
SCC-15 [18] = experiment: Induction of apoptosis in human SCC15 cells transfected with PPARbeta siRNA assessed as increase in caspase 3 activity at 50 uM after 24 hrs relative to control; format: functional

O=C1c2ccccc2C(=O)c2sc3nc(=O)sc-3cc21
Activity (SCC-15 [1]): 54.37% | Activity (SCC-15 [2]): inactive | Activity (SCC-15 [3]): 45.91% | Activity (SCC-15 [4]): 16.62% | Activity (SCC-15 [5]): inactive | Activity (SCC-15 [6]): 26.99% | Activity (SCC-15 [7]): Active | Activity (SCC-15 [8]): 18.32% | Activity (SCC-15 [9]): 43.55% | Activity (SCC-15 [10]): 14.34%

O=C(Cn1c2c(sc1=O)[C@@H]1c3ccccc3OC[C@H]1CS2)Nc1ccc(Cl)c(Cl)c1
Activity (SCC-15 [1]): 20.63% | Activity (SCC-15 [11]): Active | Activity (SCC-15 [3]): 22.96% | Activity (SCC-15 [4]): 31.98% | Activity (SCC-15 [5]): inactive | Activity (SCC-15 [8]): 12.08% | Activity (SCC-15 [12]): 22.95% | Activity (SCC-15 [13]): inactive

CN(C)c1ccc(C2CC(c3ccccc3)=NN2C2=NC(=O)/C(=C3/C(=O)Nc4ccccc43)S2)cc1 (stereo not given)
Activity (SCC-15 [14]): 31.92% | Activity (SCC-15 [1]): 28.26% | Activity (SCC-15 [2]): inactive | Activity (SCC-15 [11]): Active | Activity (SCC-15 [15]): inactive | Activity (SCC-15 [3]): 24.79% | Activity (SCC-15 [4]): 31.43% | Activity (SCC-15 [5]): inactive | Activity (SCC-15 [6]): 18.66% | Activity (SCC-15 [7]): Active | Activity (SCC-15 [8]): 13.53% | Activity (SCC-15 [9]): 177.42% | Activity (SCC-15 [10]): 15.27% | Activity (SCC-15 [12]): 44.97% | Activity (SCC-15 [13]): inactive

CN(CCOc1ccc(CC2SC(=O)NC2=O)cc1)c1ccccn1 (stereo not given) [ROSIGLITAZONE]
Activity (SCC-15 [16]): Active | Activity (SCC-15 [3]): 25.54% | Activity (SCC-15 [8]): inactive | Activity (SCC-15 [17]): Active

CCc1ccc(CCOc2ccc(CC3SC(=O)NC3=O)cc2)nc1 (stereo not given) [PIOGLITAZONE]
Activity (SCC-15 [16]): Active | Activity (SCC-15 [18]): >27.52% | Activity (SCC-15 [2]): 43.03% | Activity (SCC-15 [5]): 31.42% | Activity (SCC-15 [8]): inactive | Activity (SCC-15 [17]): Active | Activity (SCC-15 [9]): inactive | Activity (SCC-15 [10]): 17.33%
